Assay results from patent US7319087B2, “Antimicrobial polypeptide from Aspergillus niger” (Novozymes A/S, priority 2001, dated 2008).
No end group written: not given here.

How the values were obtained:
A. oryzae BECh2 = assay: Growth of transformants expressing the polypeptide in tubes with YPM (2% maltose); assay type: cell-based, Aspergillus oryzae; conditions: A. oryzae BECh2 transformed with expression plasmid, 6 days, 10 ml YPM (2% maltose)
Text: (§1) The A. niger anti-microbial polypeptide was inserted in the Aspergillus expression vector pMT2188 to give pMT2446 (i.e., pMT2188 with an insert comprising the A. niger anti-microbial gene): pMT2446 was transformed into A. oryzae BECh2 (disclosed, e.g., on page 26 of WO 00/39322) and into A. niger MBin118. Thirty transformants of each strain were re-isolated twice under selective and non-inducing conditions on Cove minimal plates with sucrose and acetamide. To test expression of the anti-microbial polypeptide, transformants were grown for 6 days in tubes with 10 ml YPM (2% maltose). Supernatants were run on NuPage 10% Bis-Tris SDS gels with MES running buffer to allow separation in the low mw range.

A. niger MBin118 = assay: as above; assay type: cell-based, Aspergillus niger; conditions: A. niger MBin118 transformed with expression plasmid, 6 days, 10 ml YPM (2% maltose)
Text: as §1

[1] = A. giganteus peptide, 51 amino acids; Campos-Olivas et al. (1995); cited from earlier work

Substance | growth on YPM of host transformants (A. oryzae BECh2) | growth on YPM of host transformants (A. niger MBin118) | pl [1]
A. giganteus anti-fungal polypeptide (AFP): A. giganteus anti-fungal polypeptide (AFP) disclosed in WO 94/01459 (ATYNGKCYKKDNICKYKAQSGKTAICKCYVKKCPRDGAKCEFDSYKGKCYC; UniProt P17737 44-94, looked up) | Growth was inhibited | Growth was inhibited | –
A. giganteus peptide: anti-fungal peptide from Aspergillus giganteus (Nakaya et al. 1990), 51 amino acids, four S-S bridges (ATYNGKCYKKDNICKYKAQSGKTAICKCYVKKCPRDGAKCEFDSYKGKCYC; disulfide (positions not given here); not fully specified (bridges); also: four S-S bridges, pairing not given here; UniProt P17737 44-94, looked up) | – | – | 9.3
A. niger anti-microbial polypeptide: 58 amino acid mature polypeptide with anti-microbial activity from Aspergillus niger, SEQ ID NO: 2 (positions 1 to 58), expressed from pMT2446 (MQLTSIAIILFAAMGAIANPIAAEADNLVAREAELSKYGGECSVEHNTCTYLKGGKDH; Aspergillus niger) | seemed inhibited | seemed to grow normally | –
